{
  "source": "patent US9765037B2",
  "about": "“Compositions and methods for treating toxoplasmosis, cryptosporidiosis, and other apicomplexan protozoan related diseases” (University of Washington Through its Center for …, priority 2010, dated 2017)",
  "key": {"TgCDPK1": {"molecular_target": "TgCDPK1 (Toxoplasma gondii, UniProt Q9BJF5)", "sequence (Q9BJF5 1-507)": "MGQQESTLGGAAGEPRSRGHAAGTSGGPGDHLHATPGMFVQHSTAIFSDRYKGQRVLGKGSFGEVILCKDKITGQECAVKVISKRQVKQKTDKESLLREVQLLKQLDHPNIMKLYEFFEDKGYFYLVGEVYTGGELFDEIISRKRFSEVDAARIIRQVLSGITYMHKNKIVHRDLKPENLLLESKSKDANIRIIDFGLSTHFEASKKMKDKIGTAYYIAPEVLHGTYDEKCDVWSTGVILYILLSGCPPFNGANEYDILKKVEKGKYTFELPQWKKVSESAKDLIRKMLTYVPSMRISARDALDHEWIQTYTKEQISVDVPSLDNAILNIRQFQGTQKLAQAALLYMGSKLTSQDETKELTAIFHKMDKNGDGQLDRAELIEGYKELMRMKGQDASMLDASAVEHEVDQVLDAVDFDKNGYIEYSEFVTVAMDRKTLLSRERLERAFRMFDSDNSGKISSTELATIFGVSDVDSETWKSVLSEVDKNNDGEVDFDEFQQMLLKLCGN", "format": "biochemical"}, "CpCDPK1": {"molecular_target": "CpCDPK1 (Cryptosporidium parvum (strain Iowa II), UniProt A3FQ16)", "sequence (A3FQ16 1-538)": "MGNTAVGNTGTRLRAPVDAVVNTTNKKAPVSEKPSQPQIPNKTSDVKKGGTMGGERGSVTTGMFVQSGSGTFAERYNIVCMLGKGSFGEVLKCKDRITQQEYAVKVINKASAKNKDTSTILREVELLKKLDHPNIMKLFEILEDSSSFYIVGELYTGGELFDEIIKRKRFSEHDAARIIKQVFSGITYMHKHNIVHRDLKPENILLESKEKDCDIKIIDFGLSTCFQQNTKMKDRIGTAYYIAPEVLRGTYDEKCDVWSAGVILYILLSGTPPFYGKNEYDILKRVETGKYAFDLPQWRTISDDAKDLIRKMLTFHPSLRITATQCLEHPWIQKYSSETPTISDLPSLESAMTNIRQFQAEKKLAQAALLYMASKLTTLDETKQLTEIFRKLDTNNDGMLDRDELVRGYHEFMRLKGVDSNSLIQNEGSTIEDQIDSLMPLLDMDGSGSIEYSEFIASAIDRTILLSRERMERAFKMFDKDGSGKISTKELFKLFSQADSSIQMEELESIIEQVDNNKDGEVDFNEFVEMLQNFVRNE", "assay": "biochemical", "format": "biochemical"}, "PfCDPK1": {"molecular_target": "PfCDPK1 (Plasmodium falciparum (isolate 3D7), UniProt P62344)", "assay": "biochemical", "conditions": "read-out: PfCDPK1 (% inhibition @ 3 uM)"}, "PfCDPK4": {"molecular_target": "PfCDPK4 (Plasmodium falciparum (isolate 3D7), UniProt Q8IBS5)", "assay": "biochemical", "conditions": "read-out: PfCDPK4 (% inhibition @ 3 uM)"}, "[1]": {"conditions": "Table 8, read-out: IC50 (μM) CpCDPK1"}},
  "note": "Like-named read-outs stand apart in the source and are kept apart here.",
  "data": [
    {"smiles": "Cn1nc(Cc2cccc3ccccc23)c2c(N)ncnc21", "note": "[Compound 5a, 1-methyl-3-(naphthalen-1-ylmethyl)-1H-pyrazolo[3,4-d]pyrimidin-4-amine]", "values": [
      {"measurement": "IC50", "setting": "TgCDPK1; read-out: IC50 (μM) TgCDPK1", "result": 0.458, "unit": "µM"},
      {"measurement": "IC50", "setting": "CpCDPK1; read-out: IC50 (μM) CpCDPK1", "result": 0.413, "unit": "µM"}
    ]},
    {"smiles": "C#CCn1nc(Cc2cccc3ccccc23)c2c(N)ncnc21", "note": "[Compound 5b, 3-(naphthalen-1-ylmethyl)-1-(prop-2-ynyl)-1H-pyrazolo[3,4-d]pyrimidin-4-amine]", "values": [
      {"measurement": "IC50", "setting": "TgCDPK1; read-out: IC50 (μM) TgCDPK1", "result": 0.086, "unit": "µM"},
      {"measurement": "IC50", "setting": "CpCDPK1; read-out: CpCDPK1 IC50", "result": 0.13, "unit": "µM"}
    ]},
    {"smiles": "NC(=O)Cn1nc(Cc2cccc3ccccc23)c2c(N)ncnc21", "note": "[Compound 5c, 2-(4-amino-3-(naphthalen-1-ylmethyl)-1H-pyrazolo[3,4-d]pyrimidin-1-yl)acetamide]", "values": [
      {"measurement": "IC50", "setting": "TgCDPK1; read-out: IC50 (μM) TgCDPK1", "result": 1.92, "unit": "µM"},
      {"measurement": "IC50", "setting": "CpCDPK1; [1]", "result": 2.04, "unit": "µM"},
      {"measurement": "IC50", "setting": "CpCDPK1; read-out: CpCDPK1 IC50", "result": 2, "unit": "µM"}
    ]},
    {"smiles": "Nc1ncnc2c1c(Cc1cccc3ccccc13)nn2Cc1ccccc1", "note": "[Compound 5e, 1-benzyl-3-(naphthalen-1-ylmethyl)-1H-pyrazolo[3,4-d]pyrimidin-4-amine]", "values": [
      {"measurement": "IC50", "setting": "TgCDPK1; read-out: IC50 (μM) TgCDPK1", "result": 1.85, "unit": "µM"},
      {"measurement": "IC50", "setting": "CpCDPK1; Table 3, average of three assays ± (SEM), read-out: CpCDPK1 IC50", "result": "> 3", "unit": "µM"},
      {"measurement": "IC50", "setting": "CpCDPK1; [1]", "result": "> 3", "unit": "µM"}
    ]},
    {"smiles": "Nc1ncnc2c1c(Cc1cccc3ccccc13)nn2C1CCCCC1", "note": "[Compound 5f, 1-cyclohexyl-3-(naphthalen-1-ylmethyl)-1H-pyrazolo[3,4-d]pyrimidin-4-amine]", "values": [
      {"measurement": "IC50", "setting": "TgCDPK1; read-out: IC50 (μM) TgCDPK1", "result": 0.946, "unit": "µM"},
      {"measurement": "IC50", "setting": "TgCDPK1; read-out: TgCDPK1 IC50", "result": 1, "unit": "µM"}
    ]},
    {"smiles": "CC(=O)N1CCC(n2nc(Cc3cccc4ccccc34)c3c(N)ncnc32)CC1", "note": "[Compound 5j, 1-(4-(4-amino-3-(naphthalen-1-ylmethyl)-1H-pyrazolo[3,4-d]pyrimidin-1-yl)piperidin-1-yl)ethanone]", "values": [
      {"measurement": "IC50", "setting": "TgCDPK1; read-out: IC50 (μM) TgCDPK1", "result": 0.091, "unit": "µM"},
      {"measurement": "IC50", "setting": "CpCDPK1; [1]", "result": 0.103, "unit": "µM"},
      {"measurement": "IC50", "setting": "CpCDPK1; read-out: CpCDPK1 IC50", "result": 0.1, "unit": "µM"}
    ]},
    {"smiles": "CC(=O)N1CCC(Cn2nc(Cc3cccc4ccccc34)c3c(N)ncnc32)CC1", "note": "[Compound 5k, 1-(4-((4-amino-3-(naphthalen-1-ylmethyl)-1H-pyrazolo[3,4-d]pyrimidin-1-yl)methyl)piperidin-1-yl)ethanone]", "values": [
      {"measurement": "IC50", "setting": "TgCDPK1; read-out: IC50 (μM) TgCDPK1", "result": 0.208, "unit": "µM"},
      {"measurement": "IC50", "setting": "CpCDPK1; read-out: IC50 (μM) CpCDPK1", "result": 0.36, "unit": "µM"}
    ]},
    {"smiles": "CC(=O)N1CCC(CCn2nc(Cc3cccc4ccccc34)c3c(N)ncnc32)CC1", "note": "[Compound 5l, 1-(4-(2-(4-amino-3-(naphthalen-1-ylmethyl)-1H-pyrazolo[3,4-d]pyrimidin-1-yl)ethyl)piperidin-1-yl)ethanone]", "values": [
      {"measurement": "IC50", "setting": "TgCDPK1; read-out: IC50 (μM) TgCDPK1", "result": 0.104, "unit": "µM"},
      {"measurement": "IC50", "setting": "CpCDPK1; read-out: IC50 (μM) CpCDPK1", "result": 0.179, "unit": "µM"}
    ]},
    {"smiles": "CS(=O)(=O)N1CCC(Cn2nc(Cc3cccc4ccccc34)c3c(N)ncnc32)CC1", "note": "[Compound 5q, 1-((1-(methylsulfonyl)piperidin-4-yl)methyl)-3-(naphthalen-1-ylmethyl)-1H-pyrazolo[3,4-d]pyrimidin-4-amine]", "values": [
      {"measurement": "IC50", "setting": "TgCDPK1; read-out: IC50 (μM) TgCDPK1", "result": 0.563, "unit": "µM"},
      {"measurement": "IC50", "setting": "CpCDPK1; [1]", "result": 0.691, "unit": "µM"},
      {"measurement": "IC50", "setting": "CpCDPK1; read-out: CpCDPK1 IC50", "result": 0.7, "unit": "µM"}
    ]},
    {"smiles": "CS(=O)(=O)N1CCC(CCn2nc(Cc3cccc4ccccc34)c3c(N)ncnc32)CC1", "note": "[Compound 5r, 1-(2-(1-(methylsulfonyl)piperidin-4-yl)ethyl)-3-(naphthalen-1-ylmethyl)-1H-pyrazolo[3,4-d]pyrimidin-4-amine]", "values": [
      {"measurement": "IC50", "setting": "TgCDPK1; read-out: IC50 (μM) TgCDPK1", "result": 0.117, "unit": "µM"},
      {"measurement": "IC50", "setting": "CpCDPK1; [1]", "result": 0.194, "unit": "µM"},
      {"measurement": "IC50", "setting": "CpCDPK1; read-out: CpCDPK1 IC50", "result": 0.2, "unit": "µM"}
    ]},
    {"smiles": "CC(C)n1nc(-c2cccc(OCc3ccccc3)c2)c2c(N)ncnc21", "note": "[Compound 7aa, 3-(3-(benzyloxy)phenyl)-1-isopropyl-1H-pyrazolo[3,4-d]pyrimidin-4-amine]", "values": [
      {"measurement": "inhibition of TgCDPK1 (in words)", "setting": "TgCDPK1", "result": "neither kinase is inhibited"},
      {"measurement": "IC50", "setting": "TgCDPK1; read-out: IC50 (μM) TgCDPK1", "result": 1.06, "unit": "µM"}
    ]},
    {"smiles": "CC(C)n1nc(-c2cccc(Cl)c2)c2c(N)ncnc21", "note": "[Compound 7b, 3-(3-chlorophenyl)-1-isopropyl-1H-pyrazolo[3,4-d]pyrimidin-4-amine]", "values": [
      {"measurement": "IC50", "setting": "TgCDPK1; read-out: IC50 (μM) TgCDPK1", "result": 0.02, "unit": "µM"},
      {"measurement": "IC50", "setting": "CpCDPK1; [1]", "result": 0.115, "unit": "µM"},
      {"measurement": "IC50", "setting": "CpCDPK1; read-out: CpCDPK1 IC50", "result": 0.12, "unit": "µM"}
    ]},
    {"smiles": "CC(C)c1ccc(-c2nn(C(C)C)c3ncnc(N)c23)cc1", "note": "[Compound 7d, 1-isopropyl-3-(4-isopropylphenyl)-1H-pyrazolo[3,4-d]pyrimidin-4-amine]", "values": [
      {"measurement": "IC50", "setting": "TgCDPK1; read-out: IC50 (μM) TgCDPK1", "result": 0.048, "unit": "µM"},
      {"measurement": "IC50", "setting": "CpCDPK1; [1]", "result": 0.213, "unit": "µM"},
      {"measurement": "IC50", "setting": "CpCDPK1; read-out: CpCDPK1 IC50", "result": 0.21, "unit": "µM"}
    ]},
    {"smiles": "Cc1ccc(-c2nn(C(C)C)c3ncnc(N)c23)cc1", "note": "[Compound 7f, 1-isopropyl-3-p-tolyl-1H-pyrazolo[3,4-d]pyrimidin-4-amine]", "values": [
      {"measurement": "IC50", "setting": "TgCDPK1; read-out: IC50 (μM) TgCDPK1", "result": 0.013, "unit": "µM"},
      {"measurement": "IC50", "setting": "CpCDPK1; read-out: IC50 (μM) CpCDPK1", "result": 0.087, "unit": "µM"}
    ]},
    {"smiles": "Cc1cccc(-c2nn(C(C)C)c3ncnc(N)c23)c1", "note": "[Compound 7g, 1-isopropyl-3-m-tolyl-1H-pyrazolo[3,4-d]pyrimidin-4-amine]", "values": [
      {"measurement": "inhibition at 3 µM", "setting": "PfCDPK1", "result": 72, "unit": "%"},
      {"measurement": "IC50", "setting": "CpCDPK1; read-out: IC50 (μM) CpCDPK1", "result": 0.114, "unit": "µM"},
      {"measurement": "inhibition at 3 µM", "setting": "PfCDPK4", "result": 64, "unit": "%"}
    ]},
    {"smiles": "Cc1ccc(-c2nn(C(C)C)c3ncnc(N)c23)cc1C", "note": "[Compound 7h, 3-(3,4-dimethylphenyl)-1-isopropyl-1H-pyrazolo[3,4-d]pyrimidin-4-amine]", "values": [
      {"measurement": "IC50", "setting": "TgCDPK1; read-out: IC50 (μM) TgCDPK1", "result": 0.009, "unit": "µM"},
      {"measurement": "IC50", "setting": "CpCDPK1; read-out: CpCDPK1 IC50", "result": 0.022, "unit": "µM"}
    ]},
    {"smiles": "Cc1cc(-c2nn(C(C)C)c3ncnc(N)c23)ccc1F", "note": "[Compound 7i, 3-(4-fluoro-3-methylphenyl)-1-isopropyl-1H-pyrazolo[3,4-d]pyrimidin-4-amine]", "values": [
      {"measurement": "IC50", "setting": "TgCDPK1; read-out: IC50 (μM) TgCDPK1", "result": 0.009, "unit": "µM"},
      {"measurement": "IC50", "setting": "CpCDPK1; read-out: IC50 (μM) CpCDPK1", "result": 0.053, "unit": "µM"}
    ]},
    {"smiles": "COc1ccc(-c2nn(C(C)C)c3ncnc(N)c23)cc1", "note": "[Compound 7j, 1-isopropyl-3-(4-methoxyphenyl)-1H-pyrazolo[3,4-d]pyrimidin-4-amine]", "values": [
      {"measurement": "inhibition at 3 µM", "setting": "PfCDPK1", "result": 87, "unit": "%"},
      {"measurement": "IC50", "setting": "CpCDPK1; read-out: IC50 (μM) CpCDPK1", "result": 0.41, "unit": "µM"},
      {"measurement": "inhibition at 3 µM", "setting": "PfCDPK4", "result": 30, "unit": "%"}
    ]}
  ]
}
